The source of these data is patent US11407738B2 (Achillion Pharmaceuticals, Inc., priority 2015, dated 2022).

The target in the first test is Human Factor D (Homo sapiens (Human), UniProt P00746). Put plainly: Human Factor D assay. In kind it is biochemical. The note with it: Table 3; Factor D inhibition, substrate Z-L-Lys-SBzl. The essentials: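 Serum-purified human factor D (80 nM final) preincubated 5 min at room temperature with test compound in 50 mM Tris, 1M NaCl, pH 7.5. Z-L-Lys-SBzl substrate and DTNB then added, each at 100 μM final. IC50 from nonlinear regression of reaction rate against compound concentration.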
Chain of Human Factor D (P00746 26-253): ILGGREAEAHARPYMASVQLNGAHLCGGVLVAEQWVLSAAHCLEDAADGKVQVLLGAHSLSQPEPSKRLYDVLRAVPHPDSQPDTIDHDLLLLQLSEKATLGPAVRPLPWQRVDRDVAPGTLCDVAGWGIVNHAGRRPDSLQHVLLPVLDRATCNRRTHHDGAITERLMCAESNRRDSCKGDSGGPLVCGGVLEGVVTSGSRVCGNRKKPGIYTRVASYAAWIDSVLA
As to `Cc1ncc(-c2ccc3c(c2)c(C(N)=S)nn3CC(=O)N2C[C@H](F)C[C@H]2C(=O)Nc2cccc(Br)n2)cn1` [Compound 527, (2S,4R)—N-(6-Bromopyridin-2-yl)-1-(2-(3-carbamothioyl-5-(2-methylpyrimidin-5-yl)-1H-indazol-1-yl)acetyl)-4-fluoropyrrolidine-2-carboxamide], the IC50 is below 1 µM. On the same count and under the same terms, the figure for `CC(=O)c1nn2c3ccc(cc13)-c1cnc(nc1)NCCCCCCCCC/C=C\c1cc(Cl)c(F)c(c1)CNC(=O)[C@@H]1C[C@@H](F)CN1C(=O)C2` [Compound 518, (5^2S,5^4R,Z)-2^3-acetyl-9^5-chloro-5^4,9^6-difluoro-2^1H-7,21-diaza-2(5,1)-indazola-1(5,2)-pyrimidina-5(1,2)-pyrrolidina-9(1,3)-benzenacyclohenico-saphan-10-ene-4,6-dione] is below 1 µM; for `CC(=O)c1cn(CC(=O)N2C[C@H](F)C[C@H]2C(=O)Nc2cccc(Br)n2)c2ccc(-c3cnc(O[C@@H]4CO[C@H]5[C@@H]4OC[C@H]5O)nc3)cc12` [Compound 502, (2S,4R)-1-(2-(3-Acetyl-5-(2-((3R,3aR,6R,6aR)-6-hydroxyhexahydrofuro[3,2-b]furan-3-yloxy)pyrimidin-5-yl)-1H-indol-1-yl)acetyl)-N-(6-bromopyridin-2-yl)-4-fluoropyrrolidine-2-carboxamide] it is below 1 µM. Molecule `CC(=O)c1cn(CC(=O)N[C@H](C(=O)Nc2cccc(-c3ccccc3Cl)c2F)[C@@H](C)O)c2ccc(-c3cnc(C)nc3)cc12` [Compound 500] returned an IC50 below 1 µM.

Molecule `CC(=O)c1nn(CC(=O)N2C[C@H](F)C[C@H]2C(=O)Nc2cccc(-c3cc(S(=O)(=O)NC4CC4)ccc3Cl)c2F)c2ccc(-c3cnc(C)nc3)cc12` [Compound 521, (2S,4R)-1-(2-(3-acetyl-5-(2-methylpyrimidin-5-yl)-1H-indazol-1-yl)acetyl)-N-(2′-chloro-5′-(N-cyclopropyl-sulfamoyl)-2-fluorobiphenyl-3-yl)-4-fluoropyrrolidine-2-carboxamide] returned an IC50 below 1 µM.

The molecule `COC(=O)[C@@H]1C[C@@H](F)CN1C(=O)Cn1nc(C(C)=O)c2cc(-c3cnc(C)nc3)ccc21` [Compound 513, (2S,4R)-methyl 1-(2-(3-acetyl-5-(2-methylpyrimidin-5-yl)-1H-indazol-1-yl)acetyl)-4-fluoropyrrolidine-2-carboxylate] displayed an IC50 above 10 µM. `CC(=O)c1cn(CC(=O)N[C@H](C(=O)Nc2cccc(Br)n2)[C@@H](C)O)c2ccc(-c3cnc(C)nc3)cc12` [Compound 505, (2S,3R)-2-(2-(3-Acetyl-5-(2-methylpyrimidin-5-yl)-1H-indol-1-yl)acetamido)-N-(6-bromopyridin-2-yl)-3-hydroxybutanamide] displayed an IC50 below 1 µM. Take `CC(=O)c1nn(CC(=O)N2C[C@H](F)C[C@H]2C(=O)OCc2cccc(Cl)c2F)c2ccc(-c3cnc(C)nc3)cc12` [Compound 515, 3-Chloro-2-fluorobenzyl (2S,4R)-1-(2-(3-acetyl-5-(2-methylpyrimidin-5-yl)-1H-indazol-1-yl)acetyl)-4-fluoropyrrolidine-2-carboxylate]: the IC50 was 1 to 10 µM. As to `CC(=O)c1nn(CC(=O)N2C[C@H](F)C[C@H]2C(=S)NCc2cccc(Cl)c2F)c2ccc(-c3cnc(C)nc3)cc12` [Compound 517, (2S,4R)-1-(2-(3-Acetyl-5-(2-methylpyrimidin-5-yl)-1H-indazol-1-yl)acetyl)-N-(3-chloro-2-fluorobenzyl)-4-fluoropyrrolidine-2-carbothioamide], the IC50 was below 1 µM.

The test is the same for the next values; noted with them: Table 4; Factor D inhibition, substrate Z-L-Lys-SBzl.
Regarding `CC(=O)c1nn(CC(=O)N2C[C@H](F)C[C@H]2C(=O)Nc2cccc(Br)n2)c2ccc(N3CCn4c(nnc4C(F)(F)F)C3)cc12` [Compound 618, (2S,4R)-1-(2-(3-acetyl-5-(3-(trifluoromethyl)-5,6-dihydro-[1,2,4]triazolo[4,3-a]pyrazin-7(8H)-yl)-1H-indazol-1-yl)acetyl)-N-(6-bromopyridin-2-yl)-4-fluoropyrrolidine-2-carboxamide], the IC50 is below 1 µM. As for `Cc1cccc(NC(=O)[C@@H]2CCC(F)CCN2C(=O)Cn2cc(C(N)=O)c3cc(-c4ccc5ccccc5c4)ccc32)n1` (stereo partly drawn) [Compound 594, 1-(2-((2S)-5-Fluoro-2-((6-methylpyridin-2-yl)carbamoyl)azepan-1-yl)-2-oxoethyl)-5-(naphthaalen-2-yl)-1H-indole-3-carboxamide], the IC50 is above 10 µM. Molecule `Cc1ncc(-c2ccc3c(c2)c(C(=O)NS(C)(=O)=O)nn3CC(=O)N2C[C@H](F)C[C@H]2C(=O)Nc2cccc(Br)n2)cn1` [Compound 585, 1-(2-((2S,4R)-2-((6-bromopyridin-2-yl)carbamoyl)-4-fluoropyrrolidin-1-yl)-2-oxoethyl)-5-(2-methylpyrimidin-5-yl)-N-(methylsulfonyl)-1H-indazole-3-carboxamide] gave an IC50 above 10 µM. In turn, `CC(=O)c1nn(CC(=O)N2C[C@H](F)C[C@H]2CC(=O)Nc2cccc(Cl)c2F)c2ccc(-c3cnc(C)nc3)cc12` [Compound 576, 2-((2R,4R)-1-(2-(3-Acetyl-5-(2-methylpyrimidin-5-yl)-1H-indazol-1-yl)acetyl)-4-fluoropyrrolidin-2-yl)-N-(3-chloro-2-fluorophenyl)acetamide] came in with an IC50 above 10 µM.

Turning to `COC(=O)[C@@H]1C[C@@H](F)CN1C(=O)Cn1nc(C(C)O)c2cc(-c3cnc(C)nc3)ccc21` (stereo partly drawn) [Compound 633, Methyl (2S,4R)-4-fluoro-1-(2-(3-(1-hydroxyethyl)-5-(2-methylpyrimidin-5-yl)-1H-indazol-1-yl)acetyl)pyrrolidine-2-carboxylate], the IC50 is above 10 µM. As for `COCCN(C)CCN1CC(NC(=O)[C@@H]2C[C@@H](F)CN2C(=O)Cn2nc(C(C)=O)c3cc(-c4cnc(C)nc4)ccc32)CC1=O` (stereo partly drawn) [Compound 533, (2S,4R)-1-(2-(3-acetyl-5-(2-methylpyrimidin-5-yl)-1H-indazol-1-yl)acetyl)-4-fluoro-N-(1-(2-((2-methoxyethyl)(meth-yl)amino)ethyl)-5-oxopyrrolidine-3-yl)pyrrolidine-2-carboxamide], the IC50 was above 10 µM. Molecule `Cc1cccc(NC(=O)[C@@H]2CCC(F)CCN2C(=O)Cn2cc(C(N)=O)c3cc(-c4ccc(F)nc4)ccc32)n1` (stereo partly drawn) [Compound 590, 1-(2-((2S)-5-Fluoro-2-((6-methylpyridin-2-yl)carbamoyl)azepan-1-yl)-2-oxoethyl)-5-(6-fluoropyridin-3-yl)-1H-indole-3-carboxamide] showed an IC50 above 10 µM.

Molecule `CCOP(=O)(OCC)OC[C@@]12C[C@@H]1N(C(=O)Cn1nc(C(C)=O)c3cc(-c4cnc(C)nc4)ccc31)[C@H](C(=O)Nc1cccc(Br)n1)C2` [Compound 628, ((1S,3S,5R)-2-(2-(3-acetyl-5-(2-methylpyrimidin-5-yl)-1H-indazol-1-yl)acetyl)-3-((6-bromopyridin-2-yl)carbamoyl)-2-azabicyclo[3.1.0]hex-an-5-yl)methyl diethyl phosphate] returned an IC50 of 1 to 10 µM. Same read-out and setting: with `CC(=O)c1nn(CC(=O)N2CCC[C@@H](CNC(=O)c3ncc(Br)s3)C2)c2ccc(-c3cnc(C)nc3)cc12` [Compound 548, (S)—N-((1-(2-(3-Acetyl-5-(2-methylpyrimidin-5-yl)-1H-indazol-1-yl)acetyl)piperidin-3-yl)methyl)-5-bromothiazole-2-carboxamide] the figure was above 10 µM; with `CC(=O)c1nn(CC(=O)N2C[C@H](F)C[C@H]2[C@H](O)Cc2cccc(Br)n2)c2ccc(-c3cnc(C)nc3)cc12` [Compound 540, 2-(3-Acetyl-5-(2-methylpyrimidin-5-yl)-1H-indazol-1-yl)-1-((2S,4R)-2-((R)-2-(6-bromopyridin-2-yl)-1-hydroxyethyl)-4-fluoropyrrolidin-1-yl)ethanone], 1 to 10 µM.

In turn, `CC(=O)c1nn(CC(=O)N2C[C@H](F)C[C@H]2CNCc2cccc(Cl)c2F)c2ccc(-c3cnc(C)nc3)cc12` [Compound 630, 2-(3-Acetyl-5-(2-methylpyrimidin-5-yl)-1H-indazol-1-yl)-1-((2S,4R)-2-(((3-chloro-2-fluorobenzyl)amino)methyl)-4-fluoropyrrolidin-1-yl)ethan-1-one] came in with an IC50 of 1 to 10 µM. For `CC(=O)c1nn(CC(=O)N2C[C@H](F)C[C@H]2C(=O)Nc2cccc(-c3ccc4scnc4c3)c2F)c2ccc(-c3cnc4cc(C)nn4c3)cc12` [Compound 639, (2S,4R)-1-(2-(3-acetyl-5-(4-methylpyrazolo[1,5-a]pyrimidin-6-yl)-1H-indazol-1-yl)acetyl)-N-(3-(benzo[d]thiazol-5-yl)-2-fluorophenyl)-4-fluoropyrrolidine-2-carboxamide], the IC50 is below 1 µM.

Consider `CC[C@@H](C(=O)Nc1cccc(Br)n1)N(C)C(=O)Cn1nc(C(C)=O)c2cc(-c3cnc(C)nc3)ccc21` [Compound 598, (S)-2-(2-(3-Acetyl-5-(2-methylpyrimidin-5-yl)-1H-indazol-1-yl)-N-methylacetamido)-N-(6-bromopyridin-2-yl)butanamide], for which the IC50 was 1 to 10 µM.

Consider `Cc1cccc(NC(=O)[C@@H]2CC=CCN2C(=O)Cn2cc(C(N)=O)c3cc(-c4cnc(C)nc4)ccc32)n1` [Compound 566, (S)-1-(2-(2-((6-Methylpyridin-2-yl)carbamoyl)-3,6-dihydropyridin-(2H)-yl)-2-oxoethyl)-5-(2-methylpyrimidin-5-yl)-1H-indole-3-carboxamide], for which the IC50 is above 10 µM. The molecule `CC(=O)c1nn(CC(=O)N2C[C@H](F)C[C@H]2CC(N)=O)c2ccc(-c3cnc(C)nc3)cc12` [Compound 575, 2-((2R,4R)-1-(2-(3-Acetyl-5-(2-methylpyrimidin-5-yl)-1H-indazol-1-yl)acetyl)-4-fluoropyrrolidin-2-yl)acetamide] had an IC50 above 10 µM.

The molecule `Cc1cccc(NC(=O)[C@@H]2CCC(F)CCN2C(=O)Cn2cc(C(N)=O)c3cc(-c4cnc5ncccn45)ccc32)n1` (stereo partly drawn) [Compound 615, 1-(2-((2S)-5-Fluoro-2-((6-methylpyridin-2-yl)carbamoyl)azepan-1-yl)-2-oxoethyl)-5-(imidazo[1,2-a]pyrimidin-3-yl)-1H-indole-3-carboxamide] returned an IC50 above 10 µM.

One may read the IC50 as the concentration that inhibits the measured activity by half. Read a high IC50 as weaker potency.
